Earlier results in US20130090296A1, “INJECTABLE FORMULATION OF A MACROCYCLIC LACTONE AND LEVAMISOLE” (priority 2010, published 2013).

Settings: previously found

**Q.** With c1ccc([C@H]2CN3CCSC3=N2)cc1 [levamisole] as the compound, how does the “pH required for stability” value read?
**A.** less than 4
